Results from the supplement of paper PMC5908809.

Columns and labels:
[1] = test system: normal NK cells expanded with K562-aAPC; assay: percent inhibition of viability; higher = more inhibition; conditions: 72 h, IL-2 2.5 ng/mL
Procedure: (§1)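 Drug sensitivity and resistance testing on K562-aAPC-expanded normal NK cells: 5 concentrations (10-fold steps over a 10,000-fold range), 72 h at 37 °C, viability by CellTiter-Glo normalised to DMSO and benzethonium chloride controls; DSS from the fitted curve.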

DERL-7 (IL-2 2.5 ng/mL) [2] = assay: as above; conditions: 72 h
IMC-1 (IL-2 20 ng/mL) [3] = assay: as above; conditions: 72 h
KAI3 (IL-2 2.5 ng/mL) [4] = assay: as above; conditions: 72 h
KHYG-1 (IL-2 2.5 ng/mL) [5] = assay: as above; conditions: 72 h
NK-92 (IL-2 2.5 ng/mL) [6] = assay: as above; conditions: 72 h
NK-YS (IL-2 2.5 ng/mL) [7] = assay: as above; conditions: 72 h
NKL (IL-2 2.5 ng/mL) [8] = assay: as above; conditions: 72 h
SNK-6 (IL-2 2.5 ng/mL) [9] = assay: as above; conditions: 72 h
YT (IL-2 2.5 ng/mL) [10] = assay: as above; conditions: 72 h
[11] = test system: normal primary NK cells, pool 1 (3 donors) (IL-2 2.5 ng/mL); assay: as above; conditions: 72 h
[12] = test system: normal primary NK cells, pool 1 (3 donors), resting (IL-2 0 ng/mL); assay: as above; conditions: 72 h
[13] = test system: normal primary NK cells, pool 2 (3 donors) (IL-2 2.5 ng/mL); assay: as above; conditions: 72 h
[14] = test system: normal primary NK cells, pool 3 (3 donors) (IL-2 2.5 ng/mL); assay: as above; conditions: 72 h
[15] = test system: normal NK cells expanded with K562-aAPC; assay: drug sensitivity score (DSS) (DSS units); higher = more sensitive; extreme values may be limits of the assay; conditions: 72 h; IL-2 2.5 ng/mL
Procedure: as §1

DERL-7 (IL-2 2.5 ng/mL) [16] = assay: as above; conditions: 72 h
IMC-1 (IL-2 20 ng/mL) [17] = assay: as above; conditions: 72 h
KAI3 (IL-2 2.5 ng/mL) [18] = assay: as above; conditions: 72 h
KHYG-1 (IL-2 2.5 ng/mL) [19] = assay: as above; conditions: 72 h
NK-92 (IL-2 2.5 ng/mL) [20] = assay: as above; conditions: 72 h
NK-YS (IL-2 2.5 ng/mL) [21] = assay: as above; conditions: 72 h
NKL (IL-2 2.5 ng/mL) [22] = assay: as above; conditions: 72 h
SNK-6 (IL-2 2.5 ng/mL) [23] = assay: as above; conditions: 72 h
YT (IL-2 2.5 ng/mL) [24] = assay: as above; conditions: 72 h
[25] = test system: normal primary NK cells, pool 1 (3 donors) (IL-2 2.5 ng/mL); assay: as above; conditions: 72 h
[26] = test system: normal primary NK cells, pool 1 (3 donors), resting (IL-2 0 ng/mL); assay: as above; conditions: 72 h
[27] = test system: normal primary NK cells, pool 2 (3 donors) (IL-2 2.5 ng/mL); assay: as above; conditions: 72 h
[28] = test system: normal primary NK cells, pool 3 (3 donors) (IL-2 2.5 ng/mL); assay: as above; conditions: 72 h

CN1CCN(c2nc(C3=C(c4c[nH]c5ccccc45)C(=O)NC3=O)c3ccccc3n2)CC1 [Sotrastaurin] (max concentration tested 10000 nM)
percent inhibition of viability [%]
Conditions | 1 nM | 10 nM | 100 nM | 1000 nM | 10000 nM
DERL-7 (IL-2 2.5 ng/mL) [2] | -4.78 | -0.35 | 2.08 | 40.8 | 89
IMC-1 (IL-2 20 ng/mL) [3] | -5.62 | -0.79 | -3.9 | 0.37 | 14.4
KAI3 (IL-2 2.5 ng/mL) [4] | 1.68 | 5.93 | 0.83 | 15.7 | 68.5
KHYG-1 (IL-2 2.5 ng/mL) [5] | -1.7 | 2.28 | 1.66 | 16.2 | 86.7
NK-92 (IL-2 2.5 ng/mL) [6] | -7.26 | -8.85 | -22.3 | 14.4 | 67.9
NK-YS (IL-2 2.5 ng/mL) [7] | -6.15 | -1.7 | 5.97 | 11.9 | 48.6
NKL (IL-2 2.5 ng/mL) [8] | -0.06 | 2.68 | 21.7 | 45.5 | 80
SNK-6 (IL-2 2.5 ng/mL) [9] | -17.8 | -16.5 | -5.18 | -2.38 | 44.5
YT (IL-2 2.5 ng/mL) [10] | -2.44 | 0.13 | 0.38 | 16.3 | 34.6
[1] | -1.03 | -1.43 | 5.74 | 19.1 | 54.6
[11] | -5.39 | 7.06 | 18.6 | 27.9 | 44.3
[12] | -32.7 | 2.96 | -3.23 | 9.18 | -53.6
[13] | -13.5 | -3.77 | 5.41 | 15.2 | 41.4
[14] | -3.26 | -0.15 | 8.22 | 5.07 | 38.6

Conditions | drug sensitivity score
DERL-7 (IL-2 2.5 ng/mL) [16] | 9.93
IMC-1 (IL-2 20 ng/mL) [17] | 0.22
KAI3 (IL-2 2.5 ng/mL) [18] | 6.26
KHYG-1 (IL-2 2.5 ng/mL) [19] | 7.45
NK-92 (IL-2 2.5 ng/mL) [20] | 6.04
NK-YS (IL-2 2.5 ng/mL) [21] | 4.32
NKL (IL-2 2.5 ng/mL) [22] | 11.4
SNK-6 (IL-2 2.5 ng/mL) [23] | 2.08
YT (IL-2 2.5 ng/mL) [24] | 3.65
[15] | 5.13
[25] | 7.19
[26] | 0
[27] | 3.66
[28] | 2.75

CC/C(=C(\c1ccc(O)cc1)c1ccc(OCCN(C)C)cc1)c1ccccc1 [4-hydroxytamoxifen] (max concentration tested 10000 nM)
percent inhibition of viability [%]
Conditions | 1 nM | 10 nM | 100 nM | 1000 nM | 10000 nM
DERL-7 (IL-2 2.5 ng/mL) [2] | 7.02 | -0.93 | 4.62 | 16.8 | 79.2
IMC-1 (IL-2 20 ng/mL) [3] | -4.59 | -0.5 | 3.38 | 9.15 | 71.8
KAI3 (IL-2 2.5 ng/mL) [4] | 7.22 | 10.1 | 14.3 | 5.63 | 102
KHYG-1 (IL-2 2.5 ng/mL) [5] | -2.07 | 1.6 | 5.77 | 21.8 | 55.9
NK-92 (IL-2 2.5 ng/mL) [6] | 3.77 | -3.77 | 6.43 | 2.65 | 103
NK-YS (IL-2 2.5 ng/mL) [7] | -2.09 | 3.5 | 7.72 | 7.44 | 66.8
NKL (IL-2 2.5 ng/mL) [8] | 8.86 | -6.55 | 2.97 | 4.58 | 77.8
SNK-6 (IL-2 2.5 ng/mL) [9] | -1.81 | -16.4 | 0.89 | -17.1 | 93.9
YT (IL-2 2.5 ng/mL) [10] | 3.34 | -0.32 | -0.38 | 9.38 | 93.1
[1] | -7.32 | -3.75 | -0.57 | 7.65 | 64
[11] | -13 | 0.38 | -1.85 | -2.34 | 75.4
[12] | -6.81 | 0.21 | -12.3 | -11.9 | 88.8
[13] | -4 | -6.91 | 4.61 | 4.67 | 80.2
[14] | -0.81 | -2.52 | -1.24 | 3.05 | 49.3

Conditions | drug sensitivity score
DERL-7 (IL-2 2.5 ng/mL) [16] | 7.09
IMC-1 (IL-2 20 ng/mL) [17] | 5.5
KAI3 (IL-2 2.5 ng/mL) [18] | 6.52
KHYG-1 (IL-2 2.5 ng/mL) [19] | 5.42
NK-92 (IL-2 2.5 ng/mL) [20] | 6.14
NK-YS (IL-2 2.5 ng/mL) [21] | 4.91
NKL (IL-2 2.5 ng/mL) [22] | 4.98
SNK-6 (IL-2 2.5 ng/mL) [23] | 4.28
YT (IL-2 2.5 ng/mL) [24] | 6.69
[15] | 4.78
[25] | 3.97
[26] | 4.19
[27] | 5.13
[28] | 3.03
